Experimental data as given in article PMC11758220, “Identification of a Privileged Scaffold for Inhibition of Sterol Transport Proteins through the Synthesis and Ring Distortion of Diverse, Pseudo-Natural Products” (ACS Central Science, 2025).
pIC50, pKd: −log10 of the molar value.

Key:
Format in all cases: binding
ORP1 = molecular target: T1, ORP1 (Homo sapiens, UniProt Q9BXW6); test: Fluorescence polarisation (FP) competition with NBD-cholesterol, ORP1; conditions: for inhibition at 10 µM / ORP1 (FP) inhibition: single dose, Dose = 10 µM; for pIC50: mean of three experiments run in technical duplicates
T1 construct: ORP1(534-950); host or cells: E. coli BL21(DE3)
T1 sequence (Q9BXW6 534-950): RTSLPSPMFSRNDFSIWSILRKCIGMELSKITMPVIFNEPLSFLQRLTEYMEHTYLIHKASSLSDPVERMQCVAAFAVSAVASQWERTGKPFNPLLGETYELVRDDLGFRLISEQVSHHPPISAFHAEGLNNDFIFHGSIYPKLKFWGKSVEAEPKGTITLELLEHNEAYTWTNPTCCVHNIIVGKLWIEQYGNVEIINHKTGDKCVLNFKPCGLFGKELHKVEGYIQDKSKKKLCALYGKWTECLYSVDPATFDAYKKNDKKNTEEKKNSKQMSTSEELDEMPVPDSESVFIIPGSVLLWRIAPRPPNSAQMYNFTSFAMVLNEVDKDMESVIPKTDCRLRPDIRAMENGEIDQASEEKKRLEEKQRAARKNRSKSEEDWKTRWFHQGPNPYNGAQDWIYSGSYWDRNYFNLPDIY
Description: (§1) Protein expression constructs
(§2) Human ASTER domains of Aster-A(359-547), -B(364-552) and -C(318-504) were subcloned into a pGEX-6p-2rbs vector, thus introducing the cloning artifact ‘GPLGS’.3 The pGEX-6P-1-GST-OSBP(377- […]
(§3) a gift from James H. Hurley (University of California).4 The pHIS_2His6_Thrombin_STARD4(2-205;C75S) plasmid was a gift from Young Jun Im (Chonnam National University).5 STARD5A was a gift from Nicola Burgess-Brown (Addgene plasmid #42392; http://n2t.net/addgene:42392; […]
(§4) Protein expression and purification […]
(§5) vectors including an N-terminal PreScission-cleavable glutathione S-transferase (GST)-tag were expressed in Escherichia coli (E. coli) OverExpress C41 in Terrific Broth (TB) medium for 16 h at 18 °C after the induction with 0.1 mM isopropyl β-D-1-thiogalactopyranoside (IPTG). Cells were harvested at 3500 × g for 15 minutes and lysed by sonication in buffer containing 50 mM HEPES pH 7.5, 300 mM NaCl, 10 %v/v glycerol, 5 mM dithiothreitol (DTT), 0.1 %v/v Triton X-100 and protease inhibitor mix HP plus (Serva). The lysate was purified by affinity chromatography on a GSTrap FF column (Cytiva) using an ÄKTA Start (Cytiva) in buffer containing 50 mM HEPES pH 7.5, 300 mM NaCl, 10 %v/v glycerol, 5 mM DTT and 0.01 %v/v Triton X-100. The GST-tag was cleaved overnight on the column at 4 °C. The Aster sterol binding domains were further purified by size-exclusion chromatography (SEC) on a HiLoad 16/600 Superdex 75 pg (Cytiva) in buffer containing 20 mM HEPES pH 7.5, 300 mM NaCl, 10 %v/v […]
(§6) STARD5(6-213) harboring an N-terminal His6-Tag were expressed in E. coli BL21(DE3) in Luria-Bertani Broth (LB) medium for approximately 16 h at 18 °C after induction with 0.15 mM IPTG. Cells were harvested at 3500 × g for 15 minutes and lysed by sonication in buffer containing 50 mM HEPES pH 7.5, 150 mM NaCl, 5 %v/v glycerol, 5 mM DTT, 0.1 %v/v Triton X -100 and ethylenediaminetetraacetic acid (EDTA)-free protease inhibitor cocktail (Sigma-Aldrich). The cleared lysate was purified by affinity chromatography on a Ni-NTA Superflow Cartridge (Qiagen) using an ÄKTA Start (Cytiva) in buffer containing 50 mM HEPES pH 7.5, 150 mM NaCl, 5 %v/v glycerol, 5 mM DTT. START domains were eluted by using elution buffer containing 50 mM HEPES pH 7.5, 150 mM NaCl, 5 %v/v glycerol, 5 mM DTT and 500 mM imidazole. Proteins were further purified by SEC on a HiLoad 16/600 Superdex 75 pg (Cytiva) in buffer containing 20 mM HEPES pH 7.5, 150 mM NaCl, 5 %v/v glycerol and 2 mM DTT.
(§7) The ORP domain of human OSBP(377-807) in the pGEX-6p-1 vector with an N-terminal PreScission-cleavable GST-tag was expressed in E. coli OverExpress C41 in LB medium for 16 h at 18 °C after induction with 0.1 mM IPTG. Cells were harvested at 3500 × g for 15 minutes and lysed by sonication in buffer containing 20 mM HEPES pH 7.5, 300 mM NaCl, 10 %v/v glycerol, 5 mM DTT, 0.1 %v/v Triton X-100 and EDTA-free protease inhibitor cocktail (Sigma-Aldrich). The cleared lysate was purified by affinity chromatography on a GSTrap HF column (Cytiva) using an ÄKTA Start (Cytiva) in buffer containing 20 mM HEPES pH 7.5, 300 mM NaCl, 10 %v/v glycerol, 5 mM DTT. OSBP(377 -807) was eluted by using elution buffer containing 20 mM HEPES pH 7.5, 300 mM NaCl, 10 %v/v glycerol, 5 mM DTT and 10 mM reduced glutathione. Proteins were further purified by SEC on a HiLoad 16/600 Superdex 75 pg (Cytiva) using an ÄKTA Explorer (Cytiva) in buffer containing 20 mM HEPES pH 7.5, 150 mM NaCl, 10 %v/v glycerol and 2 mM DTT.
(§8) The ORP domains of human ORP1(534-950) in pET24b(+) and ORP2(49-480) in the pET24b(+) vector including an N-terminal His6-Tag were expressed in E. coli BL21(DE3) in TB medium for approximately 16 h at 18 °C after induction with 0.1 mM IPTG. Cells were collected at 3500 × g for 15 minutes and lysed by sonification in buffer containing 10 mM Tris-HCl pH 8, 300 mM NaCl, 5 % glycerol, 2 mM DTT, 0.1 % Triton X-100 and EDTA-free protease inhibitor cocktail (Sigma-Aldrich). The cleared […]

STARD5 = molecular target: T2, STARD5 (Homo sapiens, UniProt Q9NSY2); test: Differential scanning fluorimetry (DSF), STARD5; conditions: for ΔTm at 10 µM / STARD5 (DSF) ΔTm: single dose, Dose = 10 µM; for pKd: apparent Kd, mean of three experiments run in technical duplicates, read-out: STARD5 Kd,app (DSF); for STARD5 (DSF) ΔTmmax: maximal thermal shift
T2 construct: STARD5(6-213); host or cells: E. coli BL21(DE3)
T2 sequence (Q9NSY2 6-213): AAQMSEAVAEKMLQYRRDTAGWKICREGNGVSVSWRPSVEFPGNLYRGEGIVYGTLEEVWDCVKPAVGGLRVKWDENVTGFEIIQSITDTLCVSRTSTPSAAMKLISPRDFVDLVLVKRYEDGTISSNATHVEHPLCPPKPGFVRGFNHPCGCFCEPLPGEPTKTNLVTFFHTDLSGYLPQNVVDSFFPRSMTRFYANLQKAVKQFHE

Aster-C = molecular target: T3, Aster-C (Homo sapiens, UniProt Q8IYS0); test: Fluorescence polarisation (FP) competition with NBD-cholesterol, Aster-C; conditions: for inhibition at 10 µM / Aster-C (FP) inhibition: single dose, Dose = 10 µM; for pIC50: mean of three experiments run in technical duplicates
T3 construct: -C(318-504); GST (PreScission-cleavable) (N, cleaved yes); made in house; host or cells: E. coli OverExpress C41
Description: as §1, §2, §3, §4, §5, §6, §7, §8

T3 sequence (Q8IYS0 318-504): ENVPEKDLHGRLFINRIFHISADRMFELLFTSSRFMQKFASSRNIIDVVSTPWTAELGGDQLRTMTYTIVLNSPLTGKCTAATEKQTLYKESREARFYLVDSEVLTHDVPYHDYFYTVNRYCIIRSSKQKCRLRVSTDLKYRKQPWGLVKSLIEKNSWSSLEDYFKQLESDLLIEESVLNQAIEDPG

| Compound | inhibition at 10 µM (ORP1) [%] | ΔTm at 10 µM (STARD5) [°C] | inhibition at 10 µM (Aster-C) [%] | pIC50 (ORP1) | ORP1 (FP) inhibition (ORP1) [%] | pKd (STARD5) | STARD5 (DSF) ΔTmmax (STARD5) [°C] | STARD5 (DSF) ΔTm (STARD5) [°C] | pIC50 (Aster-C) | Aster-C (FP) inhibition (Aster-C) [%] |
| --- | --- | --- | --- | --- | --- | --- | --- | --- | --- | --- |
| C[C@]12CC[C@@H](O)C[C@H]1CCC(=O)c1cc(Br)ccc1NC2=O [Compound 11b] | -1.7 | 0.3 | -2.4 | – | – | – | – | – | – | – |
| C[C@]12CC[C@@H](O)C[C@H]1CCc1c2[nH]c2c(F)cc(Cl)cc12 [Compound 10i] | 14.2 | 0.421 | -1.6 | – | – | – | – | – | – | – |
| CC12CCC3CC1CCC21C(=Nc2ccc(N4CCOCC4)cc21)O3 (single isomer, unassigned; (+)) [(+)-19a] | – | – | – | < 4.10 | -3.3 | < 4.00 | 1.7 | 0.32 | < 4.10 | -0.8 |
| C[C@]12CC[C@@H](O)C[C@H]1CCc1nc3ccccc3nc12 [Compound 7a] | 16.7 | 0.5 | 19 | – | – | – | – | – | – | – |
| C[C@]12CC[C@@H](O)C[C@H]1CCc1sc(-c3ccc(F)cc3)nc12 [Compound 8e] | – | – | – | – | 31.7 | – | – | 0.216 | – | -2.4 |
| C[C@]12CC[C@@H](O)C[C@H]1CCc1sc(-c3cccnc3)nc12 [Compound 8c] | – | – | – | – | 5.8 | – | – | 0.15 | – | 0 |
| C[C@]12CC[C@@H](O)C[C@H]1CCc1c2[nH]c2ncccc12 [Compound 3] | -5.8 | 0.149 | -3.2 | – | – | – | – | – | – | – |
| Cc1c2c(nc3cc(Br)ccc13)[C@@]1(C)CC[C@@H](O)C[C@H]1CC2 [Compound 2c] | – | – | – | – | 81.7 | – | – | 0.543 | – | -1.6 |
| C[C@]12CC[C@@H](O)C[C@H]1CCc1c2nc2ccccc2c1-c1ccccc1 [Compound 2b] | – | – | – | – | 11.7 | – | – | 0.0879 | – | -5.6 |
| C[C@]12CC[C@@H]3C[C@H]1CC[C@@]21C(=Nc2ccc(-c4ccccc4)cc21)O3 [Compound 21a] | 60.8 | 0.9 | -0.8 | – | – | – | – | – | < 4.10 | – |
| C[C@]12CC[C@@H]3C[C@H]1CC[C@@]21C(=Nc2ccc(N(Cc4ccccc4)c4ccc5c(c4)[C@@]46CC[C@@H]7C[C@@H](CC[C@@]74C)OC6=N5)cc21)O3 [Compound 20a] | – | – | – | – | 5.8 | – | – | 0.122 | – | -3.2 |
| C[C@]12CC[C@@H](O)C[C@H]1CCc1c2nc2ccc(Cl)cc2c1-c1ccccc1 [Compound 2e] | – | – | – | – | 2.5 | – | – | 0.221 | – | -5 |
| COc1ccc(-c2nc3c(s2)CC[C@@H]2C[C@H](O)CC[C@]32C)cc1 [Compound 8d] | 66.7 | 0.146 | 0.8 | – | – | – | – | – | – | – |
| Cc1ccc2[nH]c3c(c2c1)CC[C@@H]1C[C@H](O)CC[C@]31C [Compound 10e] | 27.5 | 0.2 | 1.6 | – | – | – | – | – | – | – |
| C[C@]12CC[C@@H](O)C[C@H]1CCc1c2[nH]c2ccccc12 [Compound 10a] | – | – | – | – | 28.3 | – | – | 0.373 | – | 0.8 |
| C[C@]12CC[C@@H]3C[C@H]1CC[C@@]21C(=Nc2ccc(C(F)(F)F)cc21)O3 [Compound 15g] | 73.3 | 0.9 | -0.8 | 4.89 | – | – | – | – | < 4.10 | – |
| CCCCCNc1ccc2c(c1)[C@@]13CC[C@@H]4C[C@@H](CC[C@@]41C)OC3=N2 [Compound 19c] | 47.5 | 1.3 | 1.6 | < 4.10 | – | 4.68 | 4.8 | – | < 4.10 | – |
| C[C@]12CC[C@@H](O)C[C@H]1CCC(=O)c1cc(C(F)(F)F)ccc1NC2=O [Compound 11e] | -3.3 | 0.115 | -1.6 | – | – | – | – | – | – | – |
| C[C@]12CC[C@@H](O)C[C@H]1CCc1c2[nH]c2ccc(I)cc12 [Compound 10h] | – | – | – | – | 35.8 | – | – | 0.241 | – | 24 |
| C[C@]12CC[C@@H]3C[C@H]1CC[C@@]21C(=Nc2ccc(N4CCN(Cc5ccncc5)CC4)cc21)O3 [Compound 24] | 112 | 0.216 | 0 | < 4.30 | – | < 4.00 | 0.44 | – | < 4.10 | – |
| Cc1ccc2c(c1)[C@]1(O)CC[C@@H]3C[C@H](O)CC[C@]3(C)C1=N2 [Compound 14a] | 65 | 0.5 | -1 | – | – | – | – | – | – | – |
| CC12CCC3CC1CCC21C(=Nc2c(Br)cc(C(F)(F)F)cc21)O3 (centres unmarked) [Compound 15h] | 68.3 | 0.2 | 0 | < 4.10 | – | – | – | – | < 4.10 | – |
| Cc1ccc2c(c1)C(=O)CC[C@@H]1C[C@H](O)CC[C@]1(C)C(=O)N2 [Compound 11c] | -8.3 | -0.119 | -5.6 | – | – | – | – | – | – | – |
